# Assay results reported in article PMC3150619 (Journal of medicinal chemistry, 2011).
# Tests used:
# PARP-1 = PARP-1 (Homo sapiens, UniProt P09874); conditions: previous study; cited from earlier work
# PARG [1] = target: T1, PARG (Bos taurus, UniProt O02776); conditions: previous study; cited from earlier work
# [2] = system: PARP activity in SCC-25 cells; assay: NAD assay: NAD; assay type: cell-based; conditions: pretreated with 1mM compound, MNNG 5μg/mL for 30 minutes (Figure 2C)
# [3] = system: PARG activity in SCC-25 cells; assay: PAR assay: PAR formation/turnover in SCC-25 cells after MNNG; assay type: cell-based
# PARG [4] = target: T1, PARG; assay: PARG assay; assay type: biochemical; conditions: SAR discussion in text
# T1 sequence (O02776 385-977): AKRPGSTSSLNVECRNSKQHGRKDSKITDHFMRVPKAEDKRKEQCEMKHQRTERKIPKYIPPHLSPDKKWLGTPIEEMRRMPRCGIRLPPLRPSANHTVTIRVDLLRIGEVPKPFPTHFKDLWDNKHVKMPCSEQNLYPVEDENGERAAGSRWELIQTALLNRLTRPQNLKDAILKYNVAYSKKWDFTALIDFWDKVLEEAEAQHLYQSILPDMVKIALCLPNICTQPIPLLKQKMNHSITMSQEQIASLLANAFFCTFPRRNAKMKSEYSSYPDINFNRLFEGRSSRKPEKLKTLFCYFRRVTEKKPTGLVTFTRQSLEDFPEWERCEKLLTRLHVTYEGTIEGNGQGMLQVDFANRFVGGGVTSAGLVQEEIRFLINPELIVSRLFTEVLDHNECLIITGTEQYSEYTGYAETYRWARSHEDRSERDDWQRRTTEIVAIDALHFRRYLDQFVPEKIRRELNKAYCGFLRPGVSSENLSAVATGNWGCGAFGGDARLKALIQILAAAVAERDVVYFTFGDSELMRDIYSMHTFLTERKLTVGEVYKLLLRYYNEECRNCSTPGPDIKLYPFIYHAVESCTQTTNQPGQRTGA
# PARP-1, sequence (P09874 whole entry): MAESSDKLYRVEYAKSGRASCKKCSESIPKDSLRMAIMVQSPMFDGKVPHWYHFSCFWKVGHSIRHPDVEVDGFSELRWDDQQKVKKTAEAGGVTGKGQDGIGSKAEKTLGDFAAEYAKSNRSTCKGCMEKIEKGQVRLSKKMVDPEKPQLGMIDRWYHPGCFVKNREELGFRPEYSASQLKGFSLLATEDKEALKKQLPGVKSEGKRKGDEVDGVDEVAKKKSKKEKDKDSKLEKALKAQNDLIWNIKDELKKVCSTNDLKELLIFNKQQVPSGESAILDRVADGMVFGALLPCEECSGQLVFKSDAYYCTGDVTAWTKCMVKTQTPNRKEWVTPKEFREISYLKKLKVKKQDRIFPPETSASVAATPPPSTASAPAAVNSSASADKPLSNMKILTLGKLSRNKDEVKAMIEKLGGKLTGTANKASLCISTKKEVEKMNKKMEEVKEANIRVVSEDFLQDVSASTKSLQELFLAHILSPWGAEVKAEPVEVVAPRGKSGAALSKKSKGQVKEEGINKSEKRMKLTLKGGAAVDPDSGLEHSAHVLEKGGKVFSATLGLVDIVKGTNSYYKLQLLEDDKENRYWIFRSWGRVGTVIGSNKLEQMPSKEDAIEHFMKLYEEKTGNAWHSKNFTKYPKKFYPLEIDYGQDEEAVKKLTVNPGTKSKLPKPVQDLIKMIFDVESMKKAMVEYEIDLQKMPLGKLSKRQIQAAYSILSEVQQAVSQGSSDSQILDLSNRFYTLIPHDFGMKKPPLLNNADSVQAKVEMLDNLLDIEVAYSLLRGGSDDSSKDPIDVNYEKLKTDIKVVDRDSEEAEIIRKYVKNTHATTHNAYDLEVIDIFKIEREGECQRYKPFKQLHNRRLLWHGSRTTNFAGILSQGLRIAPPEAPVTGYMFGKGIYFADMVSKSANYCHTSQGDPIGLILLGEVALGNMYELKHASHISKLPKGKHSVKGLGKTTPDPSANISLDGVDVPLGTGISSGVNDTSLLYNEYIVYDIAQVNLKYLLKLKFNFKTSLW
SMILES,inhibition of NAD(H) depletion (in words) [2],PARG inhibition (in words) (PARG [4]),further results
"Nc1ncnc2c1ncn2[C@@H]1O[C@H](COP(=O)(O)OP(=O)(O)OC[C@H]2NC[C@H](O)[C@@H]2O)[C@@H](O)[C@H]1O [ADP-HPD, adenosine 5′-diphosphate (hydroxymethyl) pyrrolidinediol]",,,inhibition of PARP-1 (in words) (PARP-1): does not inhibit PARP-1
"NC(=O)c1ccccc1 [Benzamide, benzamide, reference compound]",complete inhibition of NAD(H) depletion,,inhibition of PARG (in words) (PARG [1]): does not inhibit PARG
"O=C(Nc1ccc(Oc2ccc3ccccc3c2)c(Cl)c1)c1cc(Cl)cc(Cl)c1O [Compound 6a, 3,5-dichloro-N-(3-chloro-4-(naphthalen-2-yloxy)phenyl)-2-hydroxybenzamide]",partial inhibition of NAD(H) consumption,,"increase of PAR accumulation at 10 min ([3]; SCC-25 cells pre-incubated with 1mM compound, MNNG 5μg/mL (Figure 3B)): approximately 3 fold; inhibition of PARG in intact cells (in words) ([3]; SCC-25 cells, 1mM compound, MNNG 5μg/mL): nearly complete inhibition of PARG"
"O=C(Nc1ccc(Oc2ccc3ccccc3c2)c(Cl)c1)c1cc(Cl)cc(Cl)c1 [Compound 6b, 3,5-dichloro-N-(3-chloro-4-(naphthalen-2-yloxy)phenyl)benzamide]",minimal effect,loss of detectable inhibition of PARG,
"COc1c(Cl)cc(Cl)cc1C(=O)Nc1ccc(Oc2ccc3ccccc3c2)c(Cl)c1 [Compound 6f, 3,5-dichloro-N-(3-chloro-4-(naphthalen-2-yloxy)phenyl)-2-methoxybenzamide]",,loss of detectable PARG inhibition,
"O=C(O)c1ccccc1C(=O)Nc1ccc(Oc2ccc3ccccc3c2)c(Cl)c1 [Compound 6g, 2-(3-chloro-4-(naphthalen-2-yloxy)phenylcarbamoyl)benzoic acid]",,PARG inhibition was retained,
"NC(=O)c1cc(Cl)cc(Cl)c1O [Compound 7, 3,5-dichloro-2-hydroxybenzamide]",minimal effect,loss of detectable PARG inhibition,
"O=C(Nc1ccc(O)c(Cl)c1)c1cc(Cl)cc(Cl)c1O [Compound 8a, 3,5-dichloro-N-(3-chloro-4-hydroxyphenyl)-2-hydroxybenzamide]",,complete loss of PARG inhibition,
"O=C(Nc1ccccc1Cl)c1cc(Cl)cc(Cl)c1O [Compound 8b, 3,5-dichloro-N-(2-chlorophenyl)-2-hydroxybenzamide]",,slight loss of potency,
"O=C(Nc1cccc(Cl)c1)c1cc(Cl)cc(Cl)c1O [Compound 8c, 3,5-dichloro-N-(3-chlorophenyl)-2-hydroxybenzamide]",,PARG inhibition returned although at low potency,
"O=C(Nc1ccc(Cl)cc1)c1cc(Cl)cc(Cl)c1O [Compound 8d, 3,5-dichloro-N-(4-chlorophenyl)-2-hydroxybenzamide]",partial inhibition of NAD(H) consumption,slight loss of potency,
"O=C(Nc1ccccc1)c1cc(Cl)cc(Cl)c1O [Compound 8h, 3,5-dichloro-2-hydroxy-N-benzamide]",,not enough to detect PARG inhibition,
"Oc1c(Cl)cc(Cl)cc1/C=N/c1ccc(Oc2ccc3ccccc3c2)c(Cl)c1 [Compound 9, 2,4-dichloro-6-((3-chloro-4-(naphthalen-2-yloxy)phenylimino)methyl)phenol]",,loss of PARG inhibition,
"Oc1c(Cl)cc(Cl)cc1CNc1ccc(Oc2ccc3ccccc3c2)c(Cl)c1 [Compound 10, 2,4-dichloro-6-((3-chloro-4-(naphthalen-2-yloxy)phenylamino)methyl)phenol]",,loss of PARG inhibition,
